ChEMBL document CHEMBL5233218, “Quinolizidine alkaloids derivatives from Sophora alopecuroides Linn: Bioactivities, structure-activity relationships and preliminary molecular mechanisms” (Eur J Med Chem, 2020)

Columns and labels:
Type in all cases: functional, cell-based
LS180 = assay: Cytotoxicity against human LS180 cells assessed as inhibition of cell growth by MTT assay
H22 = assay: Cytotoxicity against mouse H22 cells assessed as inhibition of cell growth by MTT assay
[1] = Antiproliferative activity against rat HSC-T6 cells
MRC5 = assay: Anti-fibrotic activity in human MRC5 cells assessed as inhibition of TGF-beta1 induced total collagen deposition
HepG2 = assay: Cytotoxicity against human HepG2 cells assessed as inhibition of cell growth by MTT assay

Compound | IC50 (LS180) [µM] | IC50 (H22) [µM] | further results
COC(=O)CCC[C@@H]1[C@H]2CCCN3CCC[C@@H](CN1P(=O)(Oc1ccc4ccccc4c1)N(CCCl)CCCl)[C@@H]23 (some centres undefined) | 2.1 | 2.1 | 
COC(=O)CCC[C@@H]1[C@H]2CCCN3CCC[C@@H](CN1P(=O)(Oc1cccc(Cl)c1)N(CCCl)CCCl)[C@@H]23 (some centres undefined) | 2.1 | 2.1 | 
O=C1CCC[C@@H]2[C@H]3CCCN4CCC[C@@H](CN12)[C@@H]34 [MATRINE] |  |  | IC50 [1]: 128 µM
O=C1CC(n2ccc3cc(Cl)ccc32)C[C@@H]2[C@H]3CCCN4CCC[C@@H](CN12)[C@@H]34 (some centres undefined) |  |  | IC50 (MRC5): 3.3 µM
CN(C(=O)CN/C=C/c1ccccc1)[C@@H]1CC(=S)N2C[C@@H]3CCCN4CCC[C@@H]([C@H]34)[C@H]2C1 |  |  | IC50 [1]: 62 µM
COC(=O)CCC[C@@H]1[C@H]2CCCN3CCC[C@@H](CN1P(=O)(Oc1ccc(Br)cc1)N(CCCl)CCCl)[C@@H]23 (some centres undefined) | 2.1 | 2.1 | 
O=c1[nH]cc(F)c(=O)[nH]1 [FLUOROURACIL] |  |  | IC50 (HepG2): 8.02 µM
COC(=O)CCC[C@@H]1[C@H]2CCCN3CCC[C@@H](CN1P(=O)(Oc1cccc4ccccc14)N(CCCl)CCCl)[C@@H]23 (some centres undefined) | 2.1 | 2.1 | 
COC(=O)CCC[C@@H]1[C@H]2CCCN3CCC[C@@H](CN1P(=O)(Oc1ccc(F)cc1)N(CCCl)CCCl)[C@@H]23 (some centres undefined) | 2.1 | 2.1 | 
